In one assay the target is human factor XIa (Homo sapiens, UniProt P03951). Put plainly: Factor XIa Assay. It counts as biochemical. The following applies: human factor XIa 0.04 nM, substrate GPR-AFC, 30 min pre-incubation at 25° C., pH 7.4; read-out: FXIa IC50.
The next assay concerns the target T1, Human plasma kallikrein (Homo sapiens, UniProt P03952).
T1 construct: yields a heavy chain (371 amino acids) and a light chain (248 amino acids); purchased Enzyme Research Laboratories
The assay is described as follows: Plasma Kallikrein Assay. Format: biochemical. The settings on record: purified Human plasma kallikrein 0.5 nM, substrate Acetyl-K-P-R-AFC, pH 7.4.

Sequence of human factor XIa (P03951 388-625 limits assumed): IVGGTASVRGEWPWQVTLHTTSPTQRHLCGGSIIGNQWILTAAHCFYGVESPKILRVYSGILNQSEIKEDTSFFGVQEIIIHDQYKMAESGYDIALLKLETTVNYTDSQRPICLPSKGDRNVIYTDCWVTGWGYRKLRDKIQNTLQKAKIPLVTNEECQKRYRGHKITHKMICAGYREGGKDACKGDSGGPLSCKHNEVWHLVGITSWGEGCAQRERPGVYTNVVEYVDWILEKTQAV
Sequence of human factor XIa (P03951 19-387 partner limits assumed): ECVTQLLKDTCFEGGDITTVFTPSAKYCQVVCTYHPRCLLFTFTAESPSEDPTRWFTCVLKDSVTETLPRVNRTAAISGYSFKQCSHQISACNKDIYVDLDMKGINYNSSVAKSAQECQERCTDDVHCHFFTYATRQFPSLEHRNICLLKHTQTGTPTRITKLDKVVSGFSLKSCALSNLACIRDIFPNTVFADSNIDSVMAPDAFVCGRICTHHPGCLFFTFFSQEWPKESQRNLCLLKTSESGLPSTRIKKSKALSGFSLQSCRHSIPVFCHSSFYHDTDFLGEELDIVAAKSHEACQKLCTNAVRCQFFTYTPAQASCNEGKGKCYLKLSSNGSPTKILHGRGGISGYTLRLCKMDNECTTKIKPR
T1 sequence (P03952 391-638 limits assumed): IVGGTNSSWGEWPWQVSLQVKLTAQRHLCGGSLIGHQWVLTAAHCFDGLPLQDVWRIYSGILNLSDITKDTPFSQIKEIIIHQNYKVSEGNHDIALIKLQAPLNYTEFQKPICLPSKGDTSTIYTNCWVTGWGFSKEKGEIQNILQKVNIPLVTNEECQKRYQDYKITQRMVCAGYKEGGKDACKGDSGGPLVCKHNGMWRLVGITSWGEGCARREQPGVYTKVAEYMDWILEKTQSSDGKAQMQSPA
T1 sequence (P03952 20-390 partner limits assumed): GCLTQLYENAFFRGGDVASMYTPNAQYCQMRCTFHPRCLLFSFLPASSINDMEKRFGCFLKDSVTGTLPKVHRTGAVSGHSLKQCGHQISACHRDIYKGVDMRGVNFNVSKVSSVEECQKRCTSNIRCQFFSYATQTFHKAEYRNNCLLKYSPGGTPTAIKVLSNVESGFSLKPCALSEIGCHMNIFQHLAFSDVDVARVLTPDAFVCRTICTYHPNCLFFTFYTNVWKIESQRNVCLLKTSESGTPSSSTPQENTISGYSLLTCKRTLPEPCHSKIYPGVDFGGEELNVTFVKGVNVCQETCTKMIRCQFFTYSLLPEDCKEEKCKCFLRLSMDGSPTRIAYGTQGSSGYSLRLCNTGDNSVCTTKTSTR

The IC50 is the concentration at which inhibition is half-maximal. In the case of `Cc1ncc(-c2c(C(F)F)ccc(Cl)c2F)nc1C(=O)Nc1cnn(Cc2cnc(N3CC(F)(F)C3)c(C)n2)c1` [Example 11, 6-(3-Chloro-6-(difluoromethyl)-2-fluorophenyl)-N-(1-((5-(3,3-difluoroazetidin-1-yl)-6-methylpyrazin-2-yl)methyl)-1H-pyrazol-4-yl)-3-methylpyrazine-2-carboxamide], the values for the IC50 at human factor XIa and at Human plasma kallikrein were 1710 nM and 6.2 nM, respectively.

Consider `O=C(Nc1cnn(Cc2cnc(N3CC4CC4C3CO)nc2)c1)c1cncc(-c2c(C(F)F)ccc(Cl)c2F)n1` (single isomer, unassigned) [Example 79, 6-(3-Chloro-6-(difluoromethyl)-2-fluorophenyl)-N-(1-((2-((1R,2S,5S or 1S,2R,5R)-2-(hydroxymethyl)-3-azabicyclo[3.1.0]hexan-3-yl)pyrimidin-5-yl)methyl)-1H-pyrazol-4-yl)pyrazine-2-carboxamide], for which the IC50 on human factor XIa turned out to be 2860 nM; against Human plasma kallikrein, 5.9 nM.

For `CS(=O)(=O)c1ccc(Cl)c(F)c1-c1cncc(C(=O)Nc2cnn(Cc3cnc(N4CCC4)nc3)c2)n1` [Example 207, N-(1-((2-(Azetidin-1-yl)pyrimidin-5-yl)methyl)-1H-pyrazol-4-yl)-6-(3-chloro-2-fluoro-6-(methylsulfonyl)phenyl)pyrazine-2-carboxamide], the results for the IC50 on human factor XIa and on Human plasma kallikrein were 675 nM and 17.2 nM, respectively.

Take `CC(c1cnc(N2CC3(CC3)C2)nc1)n1cc(NC(=O)c2cncc(-c3c(C(F)F)ccc(Cl)c3F)n2)cn1` (centres unmarked) [Example 99, N-(1-(1-(2-(5-Azaspiro[2.3]hexan-5-yl)pyrimidin-5-yl)ethyl)-1H-pyrazol-4-yl)-6-(3-chloro-6-(difluoromethyl)-2-fluorophenyl)pyrazine-2-carboxamide]: the results for the IC50 at human factor XIa and at Human plasma kallikrein were 3660 nM and 29.8 nM, respectively.

`CC(c1ccc(N2CCC2)nc1)n1cc(NC(=O)c2cncc(-c3c(C(F)F)ccc(Cl)c3F)n2)cn1` (single isomer, unassigned) [Example 37, (S or R)-N-(1-(1-(6-(azetidin-1-yl)pyridin-3-yl)ethyl)-1H-pyrazol-4-yl)-6-(3-chloro-6-(difluoromethyl)-2-fluorophenyl)pyrazine-2-carboxamide]: the IC50 at human factor XIa is 2700 nM; at Human plasma kallikrein it was 25.6 nM.

On to `C[C@@H](c1cnc(N2CCC2)nc1)n1cc(NC(=O)c2cncc(-c3c(C(F)F)ccc(Cl)c3F)n2)cn1` [Example 5, (S)-N-(1-(1-(2-(Azetidin-1-yl)pyrimidin-5-yl)ethyl)-1H-pyrazol-4-yl)-6-(3-chloro-6-(difluoromethyl)-2-fluorophenvl)pyrazine-2-carboxamide], for which the values for the 50% inhibitory concentration (IC50) on human factor XIa and at Human plasma kallikrein were 1350 nM and 6.6 nM, respectively.

Consider `O=C(Nc1cnn(Cc2cnc(N3C[C@H]4C[C@H]4[C@H]3CO)nc2)c1)c1cncc(-c2c(C(F)F)ccc(Cl)c2F)n1` [Example 73, 6-(3-Chloro-6-(difluoromethyl)-2-fluorophenyl)-N-(1-((2-((1R,2S,5S)-2-(hydroxymethyl)-3-azabicyclo[3.1.0]hexan-3-yl)pyrimidin-5-yl)methyl)-1H-pyrazol-4-yl)pyrazine-2-carboxamide], for which the concentration for half-maximal inhibition (IC50) on human factor XIa was 1490 nM; on Human plasma kallikrein, 3.7 nM.

As for `O=C(Nc1cnn(Cc2cnc(N3CCC[C@H]3CN3CC[C@@H](O)C3)nc2)c1)c1cncc(-c2c(C(F)F)ccc(Cl)c2F)n1` [Example 142, 6-(3-Chloro-6-(difluoromethyl)-2-fluorophenyl)-N-(1-((2-((S)-2-(((R)-3-hydroxypyrrolidin-1-yl)methyl)pyrrolidin-1-yl)pyrimidin-5-yl)methyl)-1H-pyrazol-4-yl)pyrazine-2-carboxamide], the IC50 is 2170 nM at human factor XIa and 0.4 nM against Human plasma kallikrein.

Regarding `Cc1cc(N2CCC2)ncc1Cn1cc(NC(=O)c2cncc(-c3c(C(F)F)ccc(Cl)c3F)n2)cn1` [Example 17, N-(1-((6-(Azetidin-1-yl)-4-methylpyridin-3-yl)methyl)-1H-pyrazol-4-yl)-6-(3-chloro-6-(difluoromethyl)-2-fluorophenyl)pyrazine-2-carboxamide], the IC50 amounted to 1370 nM at human factor XIa and 10.2 nM against Human plasma kallikrein.

In the case of `COc1ccc(C(F)F)c(-c2cncc(C(=O)Nc3cnn(Cc4cnc(N5CCC5)nc4)c3)n2)c1F` [Example 208, N-(1-((2-(Azetidin-1-yl)pyrimidin-5-yl)methyl)-1H-pyrazol-4-yl)-6-(6-(difluoromethyl)-2-fluoro-3-methoxyphenyl)pyrazine-2-carboxamide], the IC50 was 827 nM on human factor XIa and 33.9 nM at Human plasma kallikrein.

Turning to `CC(c1cnc(N2CC[C@H]2CN2CC(O)(C(C)C)C2)nc1)n1cc(NC(=O)c2cncc(-c3c(C(F)F)ccc(Cl)c3F)n2)cn1` (stereo partly drawn) [Example 173, 6-(3-Chloro-6-(difluoromethyl)-2-fluorophenyl)-N-(1-(1-(2-((S)-2-((3-hydroxy-3-isopropylazetidin-1-yl)methyl)azetidin-1-yl)pyrimidin-5-yl)ethyl)-1H-pyrazol-4-yl)pyrazine-2-carboxamide], the IC50 at human factor XIa came to 8920 nM; against Human plasma kallikrein, 1 nM.

For `CC(c1cnc(N2CC[C@H]2CN2CC[C@@H](O)C2)nc1)n1cc(NC(=O)c2cncc(-c3c(C(F)F)ccc(Cl)c3F)n2)cn1` (stereo partly drawn) [Example 163, 6-(3-Chloro-6-(difluoromethyl)-2-fluorophenyl)-N-(1-(1-(2-((S)-2-(((R)-3-hydroxypyrrolidin-1-yl)methyl)azetidin-1-yl)pyrimidin-5-yl)ethyl)-1H-pyrazol-4-yl)pyrazine-2-carboxamide], the results for the IC50 on human factor XIa and on Human plasma kallikrein were 4850 nM and 1.2 nM, respectively.

`CC(c1cnc(N2CCC2)nc1)n1cc(NC(=O)c2cncc(-c3c(OC(F)F)ccc(Cl)c3F)n2)cn1` (single isomer, unassigned) [Example 57, (S or R)-N-(1-(1-(2-(Azetidin-1-yl)pyrimidin-5-yl)ethyl)-1H-pyrazol-4-yl)-6-(3-chloro-6-(difluoromethoxy)-2-fluorophenyl)pyrazine-2-carboxamide]: the IC50 on human factor XIa was 1170 nM; on Human plasma kallikrein it was 6.8 nM.

In the case of `O=C(Nc1cnn(C(CO)c2cnc(N3CC4CC4C3)nc2)c1)c1cncc(-c2c(C(F)F)ccc(Cl)c2F)n1` (single isomer, unassigned) [Example 44, N-(1-((S or R)-1-(2-(3-Azabicyclo[3.1.0]hexan-3-yl)pyrimidin-5-yl)-2-hydroxyethyl)-1H-pyrazol-4-yl)-6-(3-chloro-6-(difluoromethyl)-2-fluorophenyl)pyrazine-2-carboxamide], the results for the IC50 at human factor XIa and against Human plasma kallikrein were 1460 nM and 10.3 nM, respectively.

On to `Cc1ncc(-c2c(C(F)F)ccc(Cl)c2F)nc1C(=O)Nc1cnn(C(CO)c2cnc(N3CCC3)nc2)c1` (single isomer, unassigned) [Example 47, (R or S)-N-(1-(1-(2-(Azetidin-1-yl)pyrimidin-5-yl)-2-hydroxyethyl)-1H-pyrazol-4-yl)-6-(3-chloro-6-(difluoromethyl)-2-fluorophenyl)-3-methylpyrazine-2-carboxamide], for which the IC50 on human factor XIa came out at 326 nM; on Human plasma kallikrein, 10.6 nM.

On to `O=C(Nc1cnn(Cc2cnc(N3CCC3)nc2)c1)c1cncc(-c2c(OC(F)F)ccc(Cl)c2F)n1` [Example 64, N-(1-((2-(Azetidin-1-yl)pyrimidin-5-yl)methyl)-1H-pyrazol-4-yl)-6-(3-chloro-6-(difluoromethoxy)-2-fluorophenyl)pyrazine-2-carboxamide], for which the half-inhibitory concentration (IC50) on human factor XIa turned out to be 292 nM; at Human plasma kallikrein it was 9.6 nM.

Source of the values: US20230416227A1, “PLASMA KALLIKREIN INHIBITORS” (Merck Sharp & Dohme LLC, priority 2020, published 2023).
